Like-named read-outs stand apart in the source and are kept apart here.
Columns and labels:
hCB1 = conditions: reported data; read-out: reported binding affinity towards CB1; cited from earlier work
human CB2 (hCB2) = human CB2 (hCB2) (Homo sapiens, UniProt P34972); test: Competition binding assay with [3H]CP-55,940, membranes of CHO-K1 cells transfected with hCB2
Procedure: Frozen membrane preparations from CHO-K1 cells transfected with human CB1 (hCB1) and CB2 (hCB2), respectively (PerkinElmer, Waltham, MA, USA), were thawed on ice and diluted to a final protein concentration of 1 µg/mL in assay buffer (50 mM TRIS/HCl, 1 mM EDTA (Applichem, Darmstadt, Germany), 3 mM MgCl2, pH 7.4, containing 0.05% bovine serum albumin, BSA). […] All samples were prepared in triplicates. After 90 min, 3 mL ice cold assay buffer was added and samples were immediately filtered through Whatman GF/C filters (pre-soaked in 0.05% polyethylenimine) and washed twice with 3 mL ice cold assay buffer.

human CB1 (hCB1) = target: T1, human CB1 (hCB1) (Homo sapiens, UniProt P21554); test: Competition binding assay with [3H]CP-55,940, membranes of CHO-K1 cells transfected with hCB1; conditions: three independent experiments, [3H]CP-55,940 1.4 nM, read-out: binding affinity (Ki) towards CB1
T1 construct: purchased PerkinElmer, Waltham, MA, USA; host or cells: CHO-K1 cells (stably transfected), membrane preparation
T1 sequence (P21554 whole entry): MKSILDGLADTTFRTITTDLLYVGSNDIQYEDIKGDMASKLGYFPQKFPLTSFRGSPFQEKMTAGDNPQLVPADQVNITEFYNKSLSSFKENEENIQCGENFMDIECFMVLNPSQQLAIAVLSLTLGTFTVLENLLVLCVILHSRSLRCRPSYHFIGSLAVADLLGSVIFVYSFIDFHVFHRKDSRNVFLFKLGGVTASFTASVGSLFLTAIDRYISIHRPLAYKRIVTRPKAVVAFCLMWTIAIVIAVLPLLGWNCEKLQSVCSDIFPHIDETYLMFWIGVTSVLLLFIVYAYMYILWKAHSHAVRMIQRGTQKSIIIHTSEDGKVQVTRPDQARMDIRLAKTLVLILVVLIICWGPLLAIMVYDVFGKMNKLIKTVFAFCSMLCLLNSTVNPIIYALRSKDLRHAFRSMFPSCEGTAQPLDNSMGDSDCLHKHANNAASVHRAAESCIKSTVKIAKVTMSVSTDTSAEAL
Procedure: All samples were prepared in triplicates.

hCB2 = conditions: reported data; read-out: reported binding affinity towards human CB2; cited from earlier work
[1] = rat, in vivo, iv; for percentage of parent tracer radioactivity in blood plasma: Wistar
Procedure: [^11C]KP23 was administered intravenously to a restrained Wistar rat (413 g) by tail vein injection (ca. 160 MBq). The animal was sacrificed by decapitation 30 min p.i. and blood and urine were collected. Whole blood was collected in heparin-coated tubes (BD Vacutainers, Plymouth, UK) and centrifuged at 5,000 g for 5 min, 4 °C. The proteins of the supernatant plasma and urine were precipitated by addition of an equal volume of acetonitrile and centrifuged at 5,000 g for another 5 min. The supernatants were filtered and analyzed by UPLC. For the determination of in vivo radiometabolites at 15 min p.i. blood samples were withdrawn from the tail vein opposite to the injection site.

[2] = In vitro stability in phosphate buffer (PBS); assay type: physicochemical; conditions: PBS pH 7.4, 37 °C, 40 min
Procedure: (§1) To test the plasma stability of the radioligand, 10 µL (4 MBq) of [^11C]KP23 solution were added to phosphate buffer (300 µL, 4 mM NaH2PO4/Na2HPO4, 155 mM NaCl, pH 7.4), mouse and rat plasma (300 µL), respectively. The mixture was vortexed and four aliquots of 70 µL were incubated at 37 °C. Ice cold acetonitrile (100 µL) was added to stop the enzymatic reactions at different time points (0, 10, 20 and 40 min). After centrifugation (10,000 g, 3 min), the supernatant was passed through a filter (0.45 µm, Minisart SRP 4, Sartorius Stedim Biotech, Goettingen, Germany) and analyzed by UPLC.

[3] = In vitro stability in rat plasma; assay type: in vitro ADME; conditions: 37 °C, 40 min
Procedure: as §1

[4] = In vitro stability in mouse plasma; assay type: in vitro ADME; conditions: 37 °C, 40 min
Procedure: as §1

CB2 in rat spleen slices = target: T2, CB2 in rat spleen slices (Rattus norvegicus, UniProt Q9QZN9); test: In vitro autoradiography on rat spleen slices; assay type: binding
T2 construct: performed on 20 µm tissue slices (rat/mouse spleen) adsorbed to SuperFrost Plus slides; from tissue; host or cells: rat spleen slices (20 µm)
T2 sequence (Q9QZN9 1-360): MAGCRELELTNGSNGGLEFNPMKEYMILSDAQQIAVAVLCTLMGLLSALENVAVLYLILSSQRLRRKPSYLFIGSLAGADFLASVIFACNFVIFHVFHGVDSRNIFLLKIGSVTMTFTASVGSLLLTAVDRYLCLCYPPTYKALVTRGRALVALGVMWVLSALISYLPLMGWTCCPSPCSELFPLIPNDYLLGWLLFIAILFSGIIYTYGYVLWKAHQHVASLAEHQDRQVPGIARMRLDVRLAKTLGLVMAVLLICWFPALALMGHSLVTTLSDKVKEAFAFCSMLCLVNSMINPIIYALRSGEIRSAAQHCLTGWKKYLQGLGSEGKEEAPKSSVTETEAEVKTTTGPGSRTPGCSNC
Procedure: (§2) In vitro autoradiography with [^11C]KP23 was performed on 20 µm tissue slices (rat/mouse spleen) adsorbed to SuperFrost Plus slides. Slices were thawed (10 min) on ice before pre-incubation with incubation buffer (50 mM TRIS/HCl, pH 7.4, containing 5% BSA) at 4 °C for 10 min. Excess solution was carefully removed and the tissue slices were dried in a ventilated hood for 10 min. Then slides were incubated with 0.6 or 0.2 nM [^11C]KP23 alone or together with specific CB2 agonist (GW405833, 1 µM) in incubation buffer. After incubation for 15 min at RT in a humid chamber, slides were washed twice with ice cold washing buffer (50 mM TRIS/HCl, pH 7.4, 1% BSA, 5% EtOH) for 2 min each and dipped twice in water. Dried slides were exposed to a phosphor imager plate for 30 min and the plate was scanned in a BAS5000 reader (Fujifilm, Dielsdorf, Switzerland).

[5] = In vivo dynamic PET imaging in Wistar rats; design: species or system rat
Procedure: PET scanning was performed with the GE VISTA eXplore PET/CT tomograph (Sedecal, Madrid, Spain). The scanner is characterized by high sensitivity (absolute central point source sensitivity of 4% for the […] energy windows) and an axial field of view of 4.8 cm. Male Wistar rats (278 ± 2 g, n = 2) were immobilized by isoflurane inhalation and the tracer was injected into a tail vein on the tomographic bed. Tracer accumulation in the spleen or brain were recorded by dynamic one-bed position PET scans over 60 min starting with the injection of 13 respectively 40 MBq (0.05 to 0.15 nmol) of [^11C]KP23. PET data was reconstructed by 3-dimensional FORE/2-dimensional OSEM in user-defined time frames with a voxel size of 0.3875 × 0.3875 × 0.775 mm. Singles and random corrections but no attenuation correction were applied. Image files were evaluated with the software PMOD v3.4 (PMOD Technologies Inc., Zurich, Switzerland). Time activity curves (TACs) of brain regions were generated with the implemented rat brain region of interest (ROI) template and TACs of the abdominal region with the respective ROIs generated by the PMOD segmentation tool. Spleen, liver and background TACs were confirmed by analysis of manually drawn regions of interest. Standardized uptake values (SUV) were calculated as tissue activities (Bq/cm^3), normalized to the injected dose per body weight (Bq/g).

[6] = target: T3, CB2 in mouse spleen slices (Mus musculus, UniProt P47936); test: In vitro autoradiography on mouse spleen slices; assay type: binding
T3 construct: performed on 20 µm tissue slices (rat/mouse spleen) adsorbed to SuperFrost Plus slides; from tissue; host or cells: mouse spleen slices (20 µm)
T3 sequence (P47936 whole entry): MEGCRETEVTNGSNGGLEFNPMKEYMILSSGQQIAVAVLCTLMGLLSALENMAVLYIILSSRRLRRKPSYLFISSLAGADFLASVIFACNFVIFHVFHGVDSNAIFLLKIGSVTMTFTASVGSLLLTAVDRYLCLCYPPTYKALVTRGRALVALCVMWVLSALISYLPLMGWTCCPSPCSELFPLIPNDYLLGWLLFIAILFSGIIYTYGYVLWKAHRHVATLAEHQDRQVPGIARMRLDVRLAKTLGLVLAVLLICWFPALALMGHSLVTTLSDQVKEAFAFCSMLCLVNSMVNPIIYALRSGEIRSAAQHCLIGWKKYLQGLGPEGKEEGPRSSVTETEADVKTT
Procedure: as §2

Sequence of human CB2 (hCB2) (P34972 whole entry): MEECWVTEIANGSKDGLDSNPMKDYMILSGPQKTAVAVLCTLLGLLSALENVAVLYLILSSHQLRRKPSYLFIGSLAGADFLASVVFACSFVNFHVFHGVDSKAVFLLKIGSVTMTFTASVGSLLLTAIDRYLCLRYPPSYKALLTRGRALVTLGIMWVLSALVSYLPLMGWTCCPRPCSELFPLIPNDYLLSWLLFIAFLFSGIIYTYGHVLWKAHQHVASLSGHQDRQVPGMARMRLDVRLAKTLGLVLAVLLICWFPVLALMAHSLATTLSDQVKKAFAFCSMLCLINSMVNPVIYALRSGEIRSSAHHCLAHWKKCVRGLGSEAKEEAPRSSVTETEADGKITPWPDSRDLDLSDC

Row | SMILES | Ki (hCB1) | Ki (human CB2 (hCB2)) | Ki (human CB1 (hCB1)) | Ki (hCB2) | percentage of parent tracer radioactivity in blood plasma ([1]; 15 min) | percentage of parent tracer radioactivity in blood plasma ([1]; 30 min) | number of radiometabolites in blood plasma (more hydrophilic than parent) [1] | stability (radioactive degradation products) [2] | plasma stability (radioactive degradation products) [3] | plasma stability (radioactive degradation products) [4] | non-specific binding in spleen tissue (CB2 in rat spleen slices; rat spleen slices (Figure 1 A2), with 1 μM GW4058233) | binding to CB2 in autoradiography (CB2 in rat spleen slices; rat spleen slices, 0.6 nM tracer, blocked by excess (1 μM) GW4058233) | brain uptake ([5]; healthy Wistar rat, i.v., PET, region of interest TAC analysis) | initial period of steadily increasing activity concentration in spleen, then slow washout ([5]; male, Wistar, rat, in vivo, iv) | time of radioactivity peak in liver ([5]; male, Wistar, rat, in vivo, iv) | spleen uptake ([5]; rat, in vivo, iv) | non-specific binding in spleen tissue ([6]; mouse spleen slices (Figure 1 B2), with 1 μM GW4058233) | binding to CB2 in autoradiography ([6]; mouse spleen slices, 0.6 nM tracer, blocked by excess (1 μM) GW4058233)
1 | CCCCOc1c(OC)ccc2cc(C(=O)NCC(F)c3ccccc3)c(=O)[nH]c12 (stereo not drawn) [KP23, 8-butoxy-N-(2-fluoro-2-phenylethyl)-7-methoxy-2-oxo-1,2-dihydroquinoline-3-carboxamide] | > 10000 nM | 6.8 ± 5.8 nM | > 10000 nM | 0.8 ± 0.3 nM | – | – | – | – | – | – | – | – | – | – | – | – | – | –
2 | CCCCOc1c(O[11CH3])ccc2cc(C(=O)NCC(F)c3ccccc3)c(=O)[nH]c12 (stereo not drawn) [[^11C]KP23] | – | – | – | – | 40% | 25% | two to three | No radioactive degradation products | No radioactive degradation products | No radioactive degradation products | relatively high non-specific binding | specific binding | low uptake | 8 min p.i. | around 4 min p.i. | high spleen uptake | relatively high non-specific binding | specific binding

From publication PMC3978495, “Synthesis and Preliminary Evaluation of a 2-Oxoquinoline Carboxylic Acid Derivative for PET Imaging the Cannabinoid Type 2 Receptor” (Pharmaceuticals, 2014)
